Experimental findings from patent US9624229B2, “Pyrimidine-2-amine compounds and their use as inhibitors of JAK kinases” (Rigel Pharmaceuticals, Inc., priority 2008, dated 2017) are described below.

Molecules are shown by their SMILES.

Chain of Ba/F3 V617F cells (O60674 whole entry V617F): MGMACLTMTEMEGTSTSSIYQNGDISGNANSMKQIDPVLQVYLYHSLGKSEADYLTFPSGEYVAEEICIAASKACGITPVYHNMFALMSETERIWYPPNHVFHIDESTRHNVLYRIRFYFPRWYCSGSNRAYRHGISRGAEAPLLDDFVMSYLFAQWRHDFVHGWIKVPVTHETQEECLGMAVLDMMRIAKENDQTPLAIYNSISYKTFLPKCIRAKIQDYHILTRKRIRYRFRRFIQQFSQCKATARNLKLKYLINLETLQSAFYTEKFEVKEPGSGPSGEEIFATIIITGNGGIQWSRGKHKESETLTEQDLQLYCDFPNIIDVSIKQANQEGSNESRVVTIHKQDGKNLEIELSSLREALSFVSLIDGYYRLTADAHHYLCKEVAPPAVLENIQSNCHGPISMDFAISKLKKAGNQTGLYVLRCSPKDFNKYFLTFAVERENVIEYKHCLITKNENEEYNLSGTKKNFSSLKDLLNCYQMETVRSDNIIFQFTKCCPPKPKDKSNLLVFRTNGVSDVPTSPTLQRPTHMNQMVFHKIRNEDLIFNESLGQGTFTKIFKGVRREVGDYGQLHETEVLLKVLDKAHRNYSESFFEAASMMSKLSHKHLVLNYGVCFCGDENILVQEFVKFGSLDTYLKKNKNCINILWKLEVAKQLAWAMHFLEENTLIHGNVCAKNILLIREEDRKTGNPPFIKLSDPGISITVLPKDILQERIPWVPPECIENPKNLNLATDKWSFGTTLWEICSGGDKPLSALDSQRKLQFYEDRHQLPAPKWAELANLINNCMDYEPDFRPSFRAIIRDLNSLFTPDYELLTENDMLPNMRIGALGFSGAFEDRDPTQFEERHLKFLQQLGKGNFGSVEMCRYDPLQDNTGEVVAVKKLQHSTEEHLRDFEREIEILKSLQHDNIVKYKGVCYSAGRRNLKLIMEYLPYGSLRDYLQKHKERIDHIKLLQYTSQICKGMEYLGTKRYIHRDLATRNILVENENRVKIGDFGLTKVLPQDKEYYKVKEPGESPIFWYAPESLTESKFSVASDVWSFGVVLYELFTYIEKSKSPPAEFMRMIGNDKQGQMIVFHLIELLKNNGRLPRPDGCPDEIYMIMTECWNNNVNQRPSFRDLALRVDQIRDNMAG

The first test addresses Ba/F3 V617F cells (Homo sapiens, UniProt O60674, V617F, cells depend on it). Kind of test: Proliferation assay (Cell Titer-Glo, 72 h) utilizing Ba/F3 V617F cells. The format is cell-based, mouse. Conditions: Ba/F3 V617F cells, proliferation, level of activity given as class symbol, read-out: IC50 (the source's name). The method in brief:
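Readout is CellTiter-Glo luminescence after 72 h at 37 °C, giving IC50. Cells: Ba/F3 V617F, 1×10^5 cells/mL in RPMI with 10% FBS, treated in duplicate with 3-fold dilution series made from 5 mM DMSO stock, 1:250 in 5% FBS medium, added at 2×.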
Take `Cc1cc(Nc2nccc(-c3ccc(N4CCCCC4)nc3)n2)ccc1N1C[C@@H]2C[C@H]1CN2C` [compound 190, 4-(6-(piperidin-1-yl)pyridin-3-yl)-N-(3-methyl-4-((1S,4S)-5-methyl-2,5-diazabicyclo[2.2.1]heptan-2-yl)phenyl)pyrimidin-2-amine]: the GI50 is less than 1000 nM.
Still for that read-out and setting: for `Cc1cc(Nc2nccc(-c3ccc(OC4CCOCC4)nc3)n2)ccc1N1C[C@@H]2C[C@H]1CN2C` [compound 261, 4-(6-(tetrahydropyran-4-yloxy)pyridin-3-yl)-N-(3-methyl-4-((1S,4S)-5-methyl-2,5-diazabicyclo[2.2.1]heptan-2-yl)phenyl)pyrimidin-2-amine] the value was less than 1000 nM.
The same measure, in the same setting: for `Cc1cc(Nc2nccc(-c3cnc4c(c3)OCC(=O)N4)n2)ccc1N1C[C@@H]2C[C@H]1CO2` [compound 210, 4-(3-oxo-3,4-dihydro-2H-pyrido[3,2-b][1,4]oxazin-7-yl)-N-(3-methyl-4-((1S,4S)-5-oxa-2-azabicyclo[2.2.1]heptan-2-yl)phenyl)pyrimidin-2-amine] the value was less than 1000 nM; for `CCOCCCNc1ccc(-c2ccnc(Nc3ccc(N4C[C@@H]5C[C@H]4CO5)c(C)c3)n2)cn1` [compound 200, 4-(6-(3-ethoxypropyl)aminopyridin-3-yl)-N-(3-methyl-4-((1S,4S)-5-oxa-2-azabicyclo[2.2.1]heptan-2-yl)phenyl)pyrimidin-2-amine], less than 1000 nM.
Still for that read-out and setting: the figure for `Cc1cc(Nc2nccc(-c3ccc(N4CCOCC4)nc3)n2)ccc1N1C[C@@H]2C[C@H]1CN2S(C)(=O)=O` [compound 192, 4-(6-(morpholin-4-yl)pyridin-3-yl)-N-(3-methyl-4-((1S,4S)-5-methylsulfonyl-2,5-diazabicyclo[2.2.1]heptan-2-yl)phenyl)pyrimidin-2-amine] is less than 1000 nM.
With `Cc1cc(Nc2nccc(-c3cnc4c(c3)OC(C)(C)C(=O)N4)n2)ccc1N1C[C@@H]2CC[C@H]1C2` [compound 223, 4-(2,2-dimethyl-3-oxo-3,4-dihydro-2H-pyrido[3,2-b][1,4]oxazin-7-yl)-N-(3-methyl-4-((1S,4R)-2-azabicyclo[2.2.1]heptan-2-yl)phenyl)pyrimidin-2-amine], the GI50 is less than 1000 nM.
Still for that read-out and setting: the figure for `Cc1cc(Nc2nccc(-c3cnc4c(c3)CCC(=O)N4)n2)ccc1N1C[C@@H]2C[C@H]1CN2S(C)(=O)=O` [compound 237, 4-(7-oxo-5,6,7,8-tetrahydro-1,8-naphthyridin-3-yl)-N-(3-methyl-4-((1S,4S)-5-methylsulfonyl-2,5-diazabicyclo[2.2.1]heptan-2-yl)phenyl)pyrimidin-2-amine] is less than 1000 nM; for `CC1(C)Oc2cc(-c3ccnc(Nc4ccc(N5C[C@@H]6C[C@H]5CN6S(C)(=O)=O)c(Cl)c4)n3)cnc2NC1=O` [compound 249, 4-(2,2-dimethyl-3-oxo-3,4-dihydro-2H-pyrido[3,2-b][1,4]oxazin-7-yl)-N-(3-chloro-4-((1S,4S)-5-(methylsulfonyl)-2,5-diazabicyclo[2.2.1]heptan-2-yl)phenyl)pyrimidin-2-amine] it is less than 1000 nM; for `Cc1cc(Nc2nccc(-c3ccc(N4CCOCC4)nc3)n2)ccc1N1CCN2CC[C@@H]1C2` [compound 276, 4-(6-(morpholin-4-yl)pyridin-3-yl)-N-(3-methyl-4-((R)-1,4-diazabicyclo[3.2.1]octan-4-yl)phenyl)pyrimidin-2-amine] it is less than 1000 nM.

The same test, now with this note: Ba/F3 V617F cells, proliferation, level of activity to inhibit JAK2, read-out: IC50 (the source's name).
For `CCN(CC)c1nc(-c2ccnc(Nc3ccc(N4C[C@@H]5C[C@H]4CN5C)c(C)c3)n2)cs1` [compound 163, 4-(2-(diethylamino)thiazol-4-yl)-N-(3-methyl-4-((1S,4S)-5-methyl-2,5-diazabicyclo[2.2.1]heptan-2-yl)phenyl)pyrimidin-2-amine], the GI50 is less than 1000 nM.
On the same count and under the same terms, the figure for `Cc1cc(Nc2nccc(-c3cnc4c(c3)CCC(=O)N4)n2)ccc1N1C[C@@H]2C[C@H]1CN2C` [compound 51, 4-(7-oxo-5,6,7,8-tetrahydro-1,8-naphthyridin-3-yl)-N-(3-methyl-4-((1S,4S)-5-methyl-2,5-diazabicyclo[2.2.1]heptan-2-yl)phenyl)pyrimidin-2-amine] is less than 1000 nM; for `CN(C)c1nc(-c2ccnc(Nc3ccc(N4C[C@@H]5C[C@H]4CN5C)c(F)c3)n2)cs1` [compound 176, 4-(2-(dimethylamino)thiazol-4-yl)-N-(3-fluoro-4-((1S,4S)-5-methyl-2,5-diazabicyclo[2.2.1]heptan-2-yl)phenyl)pyrimidin-2-amine] it is 1000 to 10000 nM; for `Cc1cc(Nc2nccc(-c3ccc(NC4CCCCC4)nc3)n2)ccc1N1CC2(C)CN(C)CC(C)(C1)C2` [compound 77, 4-(6-(cyclohexylamino)pyridin-3-yl)-N-(3-methyl-4-(1,5,7-trimethyl-3,7-diazabicyclo[3.3.1]nonan-3-yl)phenyl)pyrimidin-2-amine] it is less than 1000 nM.
The same measure, in the same setting: the figure for `Cc1cc(Nc2nccc(-c3ccc(NC(=O)CN4CCOCC4)nc3)n2)ccc1N1C[C@@H]2C[C@H]1CN2C` [compound 141, 4-(6-(2-(morpholin-4-yl)acetamido)pyridin-3-yl)-N-(3-methyl-4-((1S,4S)-5-methyl-2,5-diazabicyclo[2.2.1]heptan-2-yl)phenyl)pyrimidin-2-amine] is less than 1000 nM.
For the molecule `Cc1cnc(Nc2ccc(N3C[C@@H]4C[C@H]3CN4C)c(F)c2)nc1-c1ccc(N(C)C)nc1` [compound 6, 4-(6-(N,N-dimethylamino)pyridin-3-yl)-5-methyl-N-(3-fluoro-4-((1S,4S)-5-methyl-2,5-diazabicyclo[2.2.1]heptan-2-yl)phenyl)pyrimidin-2-amine], the GI50 is less than 1000 nM.
Same read-out and setting: the figure for `CN(C)c1ccc(-c2ccnc(Nc3ccc(N4C[C@@H]5C[C@H]4CN5C)c(F)c3)n2)cn1` [compound 7, 4-(6-(N,N-dimethylamino)pyridin-3-yl)-N-(3-fluoro-4-((1S,4S)-5-methyl-2,5-diazabicyclo[2.2.1]heptan-2-yl)phenyl)pyrimidin-2-amine] is less than 1000 nM; for `Cc1cnc(Nc2ccc(N3C[C@@H]4C[C@H]3CN4C)c(F)c2)nc1-c1ccc(N2CCOCC2)nc1` [compound 68, 5-methyl-4-(6-(morpholin-4-yl)pyridin-3-yl)-N-(3-fluoro-4-((1S,4S)-5-methyl-2,5-diazabicyclo[2.2.1]heptan-2-yl)phenyl)pyrimidin-2-amine] it is less than 1000 nM; for `CN1CC2(C)CN(c3ccc(Nc4nccc(-c5ccc(N(C)C)nc5)n4)cc3F)CC(C)(C1)C2` [compound 83, 4-(6-(dimethylamino)pyridin-3-yl)-N-(3-fluoro-4-(1,5,7-trimethyl-3,7-diazabicyclo[3.3.1]nonan-3-yl)phenyl)pyrimidin-2-amine] it is less than 1000 nM.
Turning to `CCOc1ccc(-c2ccnc(Nc3ccc(N4C[C@@H]5C[C@H]4CN5C)c(F)c3)n2)cn1` [compound 174, 4-(6-ethoxypyridin-3-yl)-N-(3-fluoro-4-((1S,4S)-5-methyl-2,5-diazabicyclo[2.2.1]heptan-2-yl)phenyl)pyrimidin-2-amine], the GI50 lay within 1000 to 10000 nM.
Still for that read-out and setting: the figure for `CN1C[C@@H]2C[C@H]1CN2c1ccc(Nc2nccc(-c3ccc(NS(C)(=O)=O)cc3)n2)cc1F` [compound 135, 4-(4-(methylsulfonylamino)phenyl)-N-(3-fluoro-4-((1S,4S)-5-methyl-2,5-diazabicyclo[2.2.1]heptan-2-yl)phenyl)pyrimidin-2-amine] is less than 1000 nM; for `CN1C[C@@H]2C[C@H]1CN2c1ccc(Nc2nccc(-c3ccc(N4CCOCC4)cc3)n2)cc1F` [compound 47, 4-(4-(morpholin-4-yl)phenyl)-N-(3-fluoro-4-((1S,4S)-5-methyl-2,5-diazabicyclo[2.2.1]heptan-2-yl)phenyl)pyrimidin-2-amine] it is 1000 to 10000 nM.
Regarding `Cc1cc(Nc2nccc(-c3ccc(N)nc3)n2)ccc1N1C[C@@H]2C[C@H]1CN2S(C)(=O)=O` [compound 150, 4-(6-aminopyridin-3-yl)-N-(3-methyl-4-((1S,4S)-5-methylsulfonyl-2,5-diazabicyclo[2.2.1]heptan-2-yl)phenyl)pyrimidin-2-amine], the GI50 is less than 1000 nM.
As to `CNC(=O)c1ccc(-c2ccnc(Nc3ccc(N4C[C@@H]5C[C@H]4CN5C)c(C)c3)n2)cn1` [compound 50, 4-(6-(methylaminocarbonyl)pyridin-3-yl)-N-(3-methyl-4-((1S,4S)-5-methyl-2,5-diazabicyclo[2.2.1]heptan-2-yl)phenyl)pyrimidin-2-amine], the GI50 is less than 1000 nM.
With `Cc1cc(Nc2nccc(-c3cnc4[nH]ccc4c3)n2)ccc1N1C[C@@H]2C[C@H]1CN2CC1CC1` [compound 35, 4-(1H-pyrrolo[2,3-b]pyridin-5-yl)-N-(3-methyl-4-((1S,4S)-5-(cyclopropyl)methyl-2,5-diazabicyclo[2.2.1]heptan-2-yl)phenyl)pyrimidin-2-amine], the GI50 was less than 1000 nM.
`Cc1cc(Nc2nccc(-c3ccc(N(C)C)nc3)n2)ccc1N1CC2(C)CN(C)CC(C)(C1)C2` [compound 76, 4-(6-(dimethylamino)pyridin-3-yl)-N-(3-methyl-4-(1,5,7-trimethyl-3,7-diazabicyclo[3.3.1]nonan-3-yl)phenyl)pyrimidin-2-amine]: the GI50 was less than 1000 nM.

The same test, now with this note: inhibition of JAK2 activity, proliferation of Ba/F3 V617F cells, read-out: IC50 (the source's name).
Regarding `Cc1cc(Nc2nccc(-c3ccc(N(C)C)cc3)n2)cnc1N1C[C@@H]2C[C@H]1CN2C` [compound 62], the GI50 is 1000 to 10000 nM.
Consider `Cc1cc(Nc2nccc(-c3ccc(NC(=O)C(C)(C)C)cc3)n2)cnc1N1C[C@@H]2C[C@H]1CN2C` [compound 131, 4-(4-(t-butylcarbonylamino)phenyl)-N-(5-methyl-6-((1S,4S)-5-methyl-2,5-diazabicyclo[2.2.1]heptan-2-yl)pyridin-3-yl)pyrimidin-2-amine], for which the GI50 was less than 1000 nM.
Still for that read-out and setting: the figure for `CC(=O)Nc1ccc(-c2ccnc(Nc3cnc(N4C[C@@H]5C[C@H]4CN5C)c(C)c3)n2)cn1` [compound 146, 4-(6-(acetamido)pyridin-3-yl)-N-(5-methyl-6-((1S,4S)-5-methyl-2,5-diazabicyclo[2.2.1]heptan-2-yl)pyridin-3-yl)pyrimidin-2-amine] is 1000 to 10000 nM.
